# Literature values in US20200396998A1, “HERBICIDAL COMBINATIONS” (UPL LTD, priority 2017, published 2020).
# System: broadleaf weed
# Conditions: saflufenacil alone; early season broadleaf weed control
smiles,measurement,value
"CC(C)N(C)S(=O)(=O)NC(=O)c1cc(-n2c(=O)cc(C(F)(F)F)n(C)c2=O)c(F)cc1Cl [Saflufenacil, N′{2-chloro-4-fluoro-5-[1,2,3,6-tetrahydro-3-methyl-2,6-dioxo-4-(trifluoromethyl)pyrimidin-1-yl]benzoyl}-N-isopropyl-N-methylsulfamide]","Weed control efficacy over time, in words",reduced beyond 30 days after treatment
